System: S. aureus ATCC 6538
Test: Microbicidal effect of CPC on S. aureus cultures (log reduction in count)
Format: cell-based, Staphylococcus aureus
Conditions: incubated 10 minutes at 37° C
Method: The microbicidal effect of cetyl pyridinium chloride (CPC) was tested using a strain of Staphylococcus aureus. Specifically, S. aureus ATCC 6538 cultures were placed in three different test tubes. Different concentrations (0.1%, 0.01% or 0.001%) of CPC were added to each of the test tubes. The mixture of CPC and S. aureus was incubated for 10 minutes on a tube rotator at 37° C. The results are shown below in Table 1 as the log reduction in S. aureus count.

CCCCCCCCCCCCCCCC[n+]1ccccc1 [CPC, cetyl pyridinium chloride]
Log reduction in S. aureus count (CPC concentration 0.001%): 3.4 | Log reduction in S. aureus count (CPC concentration 0.01%): 5.3 | Log reduction in S. aureus count (CPC concentration 0.1%): 5.3
